{"source": "patent US20080182811A1", "about": "“METABOTROPIC GLUTAMATE RECEPTOR ACTIVATOR” (Ajinomoto Co., Inc., priority 2005, published 2008)", "target": "T1, group II metabotropic glutamate receptor subtype 3 (mGluR3) (Homo sapiens, UniProt Q14832)", "T1 construct": "expressed in transfected cells; host or cells: Xenopus oocytes injected with cRNAs of mGluR3, GIRK1 and GIRK4", "T1 sequence (Q14832 23-879)": "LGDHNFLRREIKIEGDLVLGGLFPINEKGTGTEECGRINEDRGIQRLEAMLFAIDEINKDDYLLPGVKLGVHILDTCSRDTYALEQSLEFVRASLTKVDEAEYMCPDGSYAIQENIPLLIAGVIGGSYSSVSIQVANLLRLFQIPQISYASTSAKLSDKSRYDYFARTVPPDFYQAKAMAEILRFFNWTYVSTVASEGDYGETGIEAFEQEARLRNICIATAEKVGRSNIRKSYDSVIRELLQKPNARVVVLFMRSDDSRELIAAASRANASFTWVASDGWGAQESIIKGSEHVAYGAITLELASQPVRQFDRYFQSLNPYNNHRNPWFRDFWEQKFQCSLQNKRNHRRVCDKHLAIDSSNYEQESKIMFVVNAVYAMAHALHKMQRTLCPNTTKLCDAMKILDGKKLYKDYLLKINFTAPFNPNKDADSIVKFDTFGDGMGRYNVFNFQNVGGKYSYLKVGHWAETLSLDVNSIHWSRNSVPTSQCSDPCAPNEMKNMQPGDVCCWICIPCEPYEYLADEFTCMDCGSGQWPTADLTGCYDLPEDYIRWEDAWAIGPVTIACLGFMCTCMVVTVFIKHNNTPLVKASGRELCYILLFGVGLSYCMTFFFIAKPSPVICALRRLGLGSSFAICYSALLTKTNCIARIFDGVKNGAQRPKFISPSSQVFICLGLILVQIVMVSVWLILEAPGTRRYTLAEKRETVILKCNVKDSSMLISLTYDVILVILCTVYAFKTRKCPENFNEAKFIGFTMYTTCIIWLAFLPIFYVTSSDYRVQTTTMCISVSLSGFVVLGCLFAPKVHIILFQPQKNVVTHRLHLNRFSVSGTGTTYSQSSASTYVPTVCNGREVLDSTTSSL", "experiment": "Electrophysiological measurement of response current in Xenopus oocytes injected with mGluR3, GIRK1 and GIRK4 cRNAs", "format": "cell-based", "conditions": "for mgluR3 (receptor activation by amino acid): amino acid alone, 1 mM, oocytes injected with mGluR3, GIRK1, GIRK4 cRNAs"}
{"compound": "C[C@@H](O)[C@H](N)C(=O)O", "note": "[Threonine, threonine]", "values": [{"measurement": "mgluR3 (receptor activation by amino acid)", "value": "Activated"}, {"measurement": "mgluR3 (receptor activation by amino acid)", "setting": "listed as threonine", "value": "effects of enhancing the activation"}]}
{"compound": "O=C(O)[C@@H]1CCCN1", "note": "[Proline, proline]", "values": [{"measurement": "mgluR3 (receptor activation by amino acid)", "value": "Activated"}, {"measurement": "mgluR3 (receptor activation by amino acid)", "setting": "listed as proline", "value": "effects of enhancing the activation"}]}
{"compound": "CC[C@H](C)[C@H](N)C(=O)O", "note": "[Isoleucine, isoleucine]", "values": [{"measurement": "mgluR3 (receptor activation by amino acid)", "value": "Activated"}, {"measurement": "mgluR3 (receptor activation by amino acid)", "setting": "listed as isoleucine", "value": "effects of enhancing the activation"}]}
{"compound": "N[C@@H](Cc1ccccc1)C(=O)O", "note": "[Phenylalanine, phenylalanine]", "values": [{"measurement": "mgluR3 (receptor activation by amino acid)", "value": "Activated"}, {"measurement": "mgluR3 (receptor activation by amino acid)", "setting": "listed as phenylalanine", "value": "effects of enhancing the activation"}]}
{"compound": "NCCCC[C@H](N)C(=O)O", "note": "[Lysine, lysine]", "values": [{"measurement": "mgluR3 (receptor activation by amino acid)", "value": "Activated"}, {"measurement": "mgluR3 (receptor activation by amino acid)", "setting": "listed as lysine", "value": "effects of enhancing the activation"}]}
{"compound": "NC(=O)CC[C@H](N)C(=O)O", "note": "[Glutamine, glutamine]", "values": [{"measurement": "mgluR3 (receptor activation by amino acid)", "value": "Activated"}, {"measurement": "mgluR3 (receptor activation by amino acid)", "setting": "listed as glutamine", "value": "effects of enhancing the activation"}]}
{"compound": "NCCC[C@H](N)C(=O)O", "note": "[Ornithine, ornithine]", "values": [{"measurement": "mgluR3 (receptor activation by amino acid)", "value": "Activated"}, {"measurement": "mgluR3 (receptor activation by amino acid)", "setting": "listed as ornithine", "value": "effects of enhancing the activation"}]}
{"compound": "N=C(N)NCCC[C@H](N)C(=O)O", "note": "[Arginine, arginine]", "values": [{"measurement": "mgluR3 (receptor activation by amino acid)", "value": "Activated"}, {"measurement": "mgluR3 (receptor activation by amino acid)", "setting": "listed as arginine", "value": "effects of enhancing the activation"}]}
{"compound": "N[C@@H](Cc1ccc(O)cc1)C(=O)O", "note": "[Tyrosine, tyrosine]", "values": [{"measurement": "mgluR3 (receptor activation by amino acid)", "value": "Activated"}, {"measurement": "mgluR3 (receptor activation by amino acid)", "setting": "listed as tyrosine", "value": "effects of enhancing the activation"}]}
{"compound": "NCC(=O)O", "note": "[Glycine, glycine]", "values": [{"measurement": "mgluR3 (receptor activation by amino acid)", "value": "Activated"}, {"measurement": "mgluR3 (receptor activation by amino acid)", "setting": "listed as glycine", "value": "effects of enhancing the activation"}]}
{"compound": "CC(C)C[C@H](N)C(=O)O", "note": "[Leucine, leucine]", "values": [{"measurement": "mgluR3 (receptor activation by amino acid)", "value": "Activated"}, {"measurement": "mgluR3 (receptor activation by amino acid)", "setting": "listed as leucine", "value": "effects of enhancing the activation"}, {"measurement": "effect of amino acid (response current value) with cation vs amino acid alone", "setting": "coexistence with calcium ion (10 mM), glutamic acid 3 μM, aspartic acid 300 μM, leucine 1 mM, cysteine 1 mM, FIG. 7", "value": "enhanced"}, {"measurement": "effect of amino acid (response current value) with nucleic acid and cation vs amino acid alone", "setting": "coexistence with inosinic acid (1 mM) and calcium ion (10 mM), glutamic acid 3 μM, aspartic acid 300 μM, leucine 1 mM, cysteine 1 mM, FIG. 8", "value": "enhanced"}, {"measurement": "effect of amino acid (response current value) with nucleic acid vs amino acid alone", "setting": "coexistence with inosinic acid (1 mM), glutamic acid 3 μM, aspartic acid 300 μM, valine 1 mM, leucine 1 mM, FIG. 6", "value": "enhanced"}]}
{"compound": "O=C(O)[C@@H]1C[C@@H](O)CN1", "note": "[Hydroxyproline, hydroxyproline]", "values": [{"measurement": "mgluR3 (receptor activation by amino acid)", "value": "Activated"}, {"measurement": "mgluR3 (receptor activation by amino acid)", "setting": "listed as hydroxyproline", "value": "effects of enhancing the activation"}]}
{"compound": "CSCC[C@H](N)C(=O)O", "note": "[Methionine, methionine]", "values": [{"measurement": "mgluR3 (receptor activation by amino acid)", "value": "Activated"}, {"measurement": "mgluR3 (receptor activation by amino acid)", "setting": "listed as methionine", "value": "effects of enhancing the activation"}]}
{"compound": "N[C@@H](CO)C(=O)O", "note": "[Serine, serine]", "values": [{"measurement": "mgluR3 (receptor activation by amino acid)", "value": "Activated"}, {"measurement": "mgluR3 (receptor activation by amino acid)", "setting": "listed as serine", "value": "effects of enhancing the activation"}]}
{"compound": "N[C@@H](Cc1c[nH]c2ccccc12)C(=O)O", "note": "[Tryptophan, tryptophan]", "values": [{"measurement": "mgluR3 (receptor activation by amino acid)", "value": "Activated"}, {"measurement": "mgluR3 (receptor activation by amino acid)", "setting": "listed as tryptophan", "value": "effects of enhancing the activation"}]}
{"compound": "C[C@H](N)C(=O)O", "note": "[Alanine, alanine]", "values": [{"measurement": "mgluR3 (receptor activation by amino acid)", "value": "Activated"}, {"measurement": "mgluR3 (receptor activation by amino acid)", "setting": "listed as alanine", "value": "effects of enhancing the activation"}]}
{"compound": "N[C@@H](Cc1c[nH]cn1)C(=O)O", "note": "[Histidine, histidine]", "values": [{"measurement": "mgluR3 (receptor activation by amino acid)", "value": "Activated"}, {"measurement": "mgluR3 (receptor activation by amino acid)", "setting": "listed as histidine", "value": "effects of enhancing the activation"}]}
{"compound": "NC(=O)C[C@H](N)C(=O)O", "note": "[Asparagine, asparagine]", "values": [{"measurement": "mgluR3 (receptor activation by amino acid)", "value": "Activated"}, {"measurement": "mgluR3 (receptor activation by amino acid)", "setting": "listed as asparagine", "value": "effects of enhancing the activation"}]}
{"compound": "NCCS(=O)(=O)O", "note": "[Taurine, taurine]", "values": [{"measurement": "mgluR3 (receptor activation by amino acid)", "value": "Activated"}, {"measurement": "mgluR3 (receptor activation by amino acid)", "setting": "listed as taurine", "value": "effects of enhancing the activation"}]}
